Test results published in patent US20240352000A1, “NOVEL PYRIMIDINE-2,4-DIAMINE DERIVATIVES, PREPARATION METHOD THEREFOR, AND PHARMACEUTICAL COMPOSITION CONTAINING SAME AS ACTIVE INGREDIENT FOR PREVENTION OR TREATMENT OF CANCER” (KOREA RESEARCH INSTITUTE OF CHEMICAL TECHNOLOGY, priority 2021, published 2024).

How the values were obtained:
Ba/F3 EGFR L858R/T790M = assay: CellTiter-Glo cell viability, Ba/F3 EGFR L858R/T790M; assay type: cell-based; conditions: 72 hours
Experimental: (§1) An experiment to measure the activity of the compounds of the present invention against the mutant Ba/F3 EGFR cell line was performed as follows using the CellTiter-Glo system sold by Promega. The CellTiter-Glo assay is a method to confirm the cell viability by measuring ATP present in cells in cell culture. The Ba/F3 EGFR L858R, Ba/F3 EGFR L858R/T790M, Ba/F3 EGFR L858R/T790M/C797S mutant cell line was used. The Ba/F3 EGFR L858R, Ba/F3 EGFR L858R/T790M, and Ba/F3 EGFR L858R/T790M/C797S mutant cell lines was cultured in RPMI containing 10% FBS and 1% penicillin-streptomycin with 1 μg of puromycin in an incubator at 37° C. and 5% CO2.
(§2) Analysis of the inhibitory ability effect of the compounds against EGFR was conducted according to the following analysis reaction recipe.
(§3) 2500 cells/90 μl were passaged and cultured in a 96-well cell culture plate, and after 24 hours, treated with the compound represented by Formula 1 at a concentration of 0, 0.01, 0.03, 0.1, 0.3, 1, 3, and 10 (μM). After reaction for 72 hours, the plate treated with the compound was left at room temperature for 30 minutes, then further treated with 100 μl of reagent, and shaken at room temperature for 10 minutes. Finally, the ratio of fluorescence values at 570 nm was obtained using the equipment to quantitatively measure and confirmed the inhibitory ability of the compounds. The measurement values measured at eight compound concentrations were analyzed using the Prism program (version 5.01, Graphpad Software, Inc.), and the IC50 value, which is an indicator of the inhibitory ability of the compound, was calculated.

EGFR A763_Y764insFHEA = EGFR A763_Y764insFHEA (Homo sapiens (Human), UniProt P00533, INS763FHEA); assay: HTRF enzyme assay, EGFR Ex20 insertion mutant enzyme; assay type: biochemical; conditions: recombinant enzyme, 37° C. 2 hours
Experimental: An experiment to measure the activity of the compounds of the present invention against EGFR mutant enzymes was performed as follows using the HTRF system sold by Cisbio. For the EGFR mutant enzyme, EGFR A763_Y764insFHEA enzyme, a recombinant protein provided by SignalChem was purchased and used.
(§4) The composition of the assay buffer used for measuring the activity was 50 mM Tris-HCl pH 7.5, 100 mM NaCl, 7.5 mM MgCl2, 3 mM KCl, 0.01% Tween 20, 0.1% BSA, and 1 mM DTT. Here, an enzyme reaction was performed using ATP at a concentration of […] and a peptide substrate labeled with biotin at a concentration of […]. Analysis of the inhibitory effect of the compounds against the EGFR activity was conducted according to the following analysis reaction recipe. • Component 1: 4 μL of an EGFR mutant enzyme • Component 2: 2 μL of a compound solution • Component 3: 4 μL of ATP and a peptide labeled with biotin
(§5) The enzyme reaction was started by first mixing Component 1 and Component 2 and then adding Component 3. After reaction at 37° C. for 2 hours, […] of measurement solution consisting of streptavidin-XL665 and europium-labeled anti-phosphotyrosine antibody provided by Cisbio was added to the enzyme reaction solution and reacted at room temperature for 1 hour. Finally, the ratio of fluorescence values at 615 nm and 665 nm was obtained using the Envision equipment from Perkin-Elmer to quantitatively measure the enzyme activity and confirmed the inhibitory ability of the compounds. The measurement values measured at seven compound concentrations were analyzed using the Prism program (version 5.01, Graphpad Software, Inc.), and the IC50 value, which is an indicator of the inhibitory ability of the compound, was calculated.

[1] = system: Ba/F3 EGFR V769_D770insASV; assay: CellTiter-Glo cell growth, Ba/F3 EGFR Ex20 insertion mutant; assay type: cell-based; conditions: 72 hours
Experimental: An experiment to measure the activity of the compounds of the present invention against the Ba/F3 EGFR V769_D770insASV mutant cell line was performed as follows using the CellTiter-Glo system sold by Promega. The CellTiter-Glo assay is a method to confirm the cell viability by measuring ATP present in cells in cell culture. For the Ba/F3 EGFR V769_D770insASV mutant cell line, a cell line provided by Crown Bioscience was purchased and used. The Ba/F3 EGFR V769_D770insASV mutant cell line was cultured in RPMI containing 10% FBS and 1% penicillin-streptomycin with 1 μg/ml of puromycin in an incubator at 37° C. and 5% CO2.
Analysis of the inhibitory ability effect of the compounds against the EGFR mutant cell growth was conducted according to the following analysis reaction recipe.
as §3, with “1000 cells/100 μL were passaged” for “2500 cells/90 μl were passaged”, “[…]. After reaction” for “and 10 (μM). After reaction”, “with 100 μL of reagent,” for “with 100 μl of reagent,”, “confirmed the cell growth inhibitory ability” for “confirmed the inhibitory ability”, “of the cell growth inhibitory ability” for “of the inhibitory ability”

Ba/F3 EGFR L858R = assay: CellTiter-Glo cell viability, Ba/F3 EGFR L858R; assay type: cell-based; conditions: 72 hours
Experimental: as §1, §2, §3

EGFR del19/T790M/C797S = EGFR del19/T790M/C797S (Homo sapiens (Human), UniProt P00533, C797S/DEL746-750/T790M); assay: HTRF enzyme assay, EGFR del19/T790M/C797S mutant enzyme; assay type: biochemical; conditions: enzyme from SignalChem, 37° C. 2 hours
Experimental: (§6) An experiment to measure the activity of the compounds of the present invention against EGFR mutant enzymes was performed as follows using the HTRF system sold by Cisbio. For the EGFR del19/T790M mutant enzyme, a recombinant protein provided by Carna Biosciences was purchased and used, and for the EGFR del19/T790M/C797S mutant enzyme, a protein provided by SignalChem was purchased and used as an enzyme source.
as §4, §5

EGFR del19/T790M = EGFR del19/T790M (Homo sapiens (Human), UniProt P00533, DEL746-750/T790M); assay: HTRF enzyme assay, EGFR del19/T790M mutant enzyme; assay type: biochemical; conditions: recombinant enzyme, 37° C. 2 hours
Experimental: as §6, §4, §5

EGFR A763_Y764insFHEA, sequence (P00533 other isoform, or with tags, fused parts or gaps del 1-694/ins FHEA behind 763 limits assumed): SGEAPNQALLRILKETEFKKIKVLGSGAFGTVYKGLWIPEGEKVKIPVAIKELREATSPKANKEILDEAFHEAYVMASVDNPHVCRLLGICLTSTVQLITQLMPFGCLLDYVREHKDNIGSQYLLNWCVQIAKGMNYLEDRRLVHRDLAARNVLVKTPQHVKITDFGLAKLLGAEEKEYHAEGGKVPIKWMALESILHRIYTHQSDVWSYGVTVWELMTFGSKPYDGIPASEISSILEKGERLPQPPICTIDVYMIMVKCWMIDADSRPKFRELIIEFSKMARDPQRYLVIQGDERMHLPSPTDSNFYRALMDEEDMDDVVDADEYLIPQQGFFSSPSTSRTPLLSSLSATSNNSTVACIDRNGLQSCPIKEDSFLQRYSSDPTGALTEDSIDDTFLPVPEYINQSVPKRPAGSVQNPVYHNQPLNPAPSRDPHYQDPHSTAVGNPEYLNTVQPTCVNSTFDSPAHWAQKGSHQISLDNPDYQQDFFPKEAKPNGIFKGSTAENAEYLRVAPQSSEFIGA
EGFR del19/T790M, sequence (P00533 other isoform, or with tags, fused parts or gaps T790M/del 1-668/del 746-750 limits assumed): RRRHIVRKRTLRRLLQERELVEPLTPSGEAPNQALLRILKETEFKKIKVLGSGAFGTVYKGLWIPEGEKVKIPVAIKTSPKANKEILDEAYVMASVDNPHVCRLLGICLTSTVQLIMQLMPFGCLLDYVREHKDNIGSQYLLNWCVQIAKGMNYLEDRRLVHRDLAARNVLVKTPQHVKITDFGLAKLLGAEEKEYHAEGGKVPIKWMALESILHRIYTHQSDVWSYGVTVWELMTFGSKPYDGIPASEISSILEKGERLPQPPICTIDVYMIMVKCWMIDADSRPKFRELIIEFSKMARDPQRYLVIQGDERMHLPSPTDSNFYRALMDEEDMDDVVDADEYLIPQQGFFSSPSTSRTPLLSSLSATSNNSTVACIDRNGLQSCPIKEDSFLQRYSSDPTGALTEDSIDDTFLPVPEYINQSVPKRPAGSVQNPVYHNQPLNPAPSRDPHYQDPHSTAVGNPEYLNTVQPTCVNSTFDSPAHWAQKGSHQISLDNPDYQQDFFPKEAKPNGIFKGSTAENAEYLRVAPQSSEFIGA
EGFR del19/T790M/C797S, sequence (P00533 other isoform, or with tags, fused parts or gaps T790M/C797S/del 1-694/del 746-750 limits assumed): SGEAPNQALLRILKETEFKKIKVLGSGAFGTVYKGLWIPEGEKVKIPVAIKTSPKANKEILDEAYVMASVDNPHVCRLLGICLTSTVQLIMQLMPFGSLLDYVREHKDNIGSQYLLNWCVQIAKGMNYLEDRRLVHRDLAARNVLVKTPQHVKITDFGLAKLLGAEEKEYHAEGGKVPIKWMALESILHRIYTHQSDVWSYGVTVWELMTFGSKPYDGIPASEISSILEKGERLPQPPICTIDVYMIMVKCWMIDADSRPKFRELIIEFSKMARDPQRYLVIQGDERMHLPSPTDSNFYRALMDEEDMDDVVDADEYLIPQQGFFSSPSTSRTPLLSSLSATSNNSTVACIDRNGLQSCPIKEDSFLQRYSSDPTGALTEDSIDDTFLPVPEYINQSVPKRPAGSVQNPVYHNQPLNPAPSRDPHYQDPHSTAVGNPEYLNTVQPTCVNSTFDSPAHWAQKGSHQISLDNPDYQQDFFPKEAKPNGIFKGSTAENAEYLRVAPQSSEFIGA

SMILES | IC50 (Ba/F3 EGFR L858R/T790M) [µM] | IC50 (EGFR A763_Y764insFHEA) [µM] | IC50 [1] [µM] | IC50 (Ba/F3 EGFR L858R) [µM] | IC50 (EGFR del19/T790M/C797S) [µM] | IC50 (EGFR del19/T790M) [µM]
COc1cc(N2CCC(N3CCN(C)CC3)CC2)ccc1Nc1ncc(Cl)c(Nc2cccc3c2N(S(C)(=O)=O)CC3)n1 [Example 2, 5-chloro-N2-(2-methoxy-4-(4-(4-methylpiperazin-1-yl)piperidin-1-yl)phenyl)-N4-(1-(methylsulfonyl)indolin-7-yl)pyrimidine-2,4-diamine] | < 0.03 | 0.0017 | 0.21 | < 0.03 | < 0.001 | < 0.001
COc1cc(N2CCC(N3CCN(C)CC3)CC2)ccc1Nc1ncc(Cl)c(Nc2cccc3c2N(S(C)(=O)=O)CCC3)n1 [Example 5, 5-chloro-N2-(2-methoxy-4-(4-(4-methylpiperazin-1-yl)piperidin-1-yl)phenyl)-N4-(1-(methylsulfonyl)-1,2,3,4-tetrahydroquinolin-8-yl)pyrimidine-2,4-diamine] | < 0.03 | 0.011 | 0.36 | < 0.03 | < 0.001 | < 0.001
